Reference: ChEMBL document CHEMBL5726188, “Triazolo[4,5-D]pyrimidines” (2019)

Tests used:
[1] = molecular target: Cannabinoid receptor 2 (Homo sapiens, UniProt P34972); test: (§1) cAMP Assay: CHO cells expressing human CB1 or CB2 receptors are seeded 17-24 hours prior to the experiment 50.000 cells per well in a black 96 well plate with flat clear bottom (Corning Costar #3904) in DMEM (Invitrogen No. 31331), 1×HT supplement, with 10% fetal calf serum and incubated at 5% CO2 and 37° C. in a humidified incubator. The growth medium was exchanged with Krebs Ringer Bicarbonate buffer with 1 mM IBMX and incubated at 30° C. for 30 min. Compounds were added to a final assay volume of 100 μl and incubated for 30 min at 30° C. Using the cAMP-Nano-TRF detection kit the assay (Roche Diagnostics) was stopped by the addition of 50 μl lysis reagent (Tris, NaCl, 1.5% Triton X100, 2.5% NP40, 10% NaN3) and 50 μl detection solutions (20 μM mAb Alexa700-cAMP 1:1, and 48 μM Ruthenium-2-AHA-cAMP) and shaken for 2 h at room temperature. The time-resolved energy transfer is measured by a TRF reader (Evotec Technologies GmbH), equipped with a ND:YAG laser as excitation source. The plate is measured twice with the excitation at 355 nm and at the emission with a delay of 100 ns and a gate of 100 ns, total exposure time 10 s at 730 (bandwidth 30 nm) or 645 nm (bandwidth 75 nm), respectively.
[2] = molecular target: Cannabinoid receptor 1 (Homo sapiens, UniProt P21554); test: as §1
Chain of Cannabinoid receptor 1 (P21554 whole entry): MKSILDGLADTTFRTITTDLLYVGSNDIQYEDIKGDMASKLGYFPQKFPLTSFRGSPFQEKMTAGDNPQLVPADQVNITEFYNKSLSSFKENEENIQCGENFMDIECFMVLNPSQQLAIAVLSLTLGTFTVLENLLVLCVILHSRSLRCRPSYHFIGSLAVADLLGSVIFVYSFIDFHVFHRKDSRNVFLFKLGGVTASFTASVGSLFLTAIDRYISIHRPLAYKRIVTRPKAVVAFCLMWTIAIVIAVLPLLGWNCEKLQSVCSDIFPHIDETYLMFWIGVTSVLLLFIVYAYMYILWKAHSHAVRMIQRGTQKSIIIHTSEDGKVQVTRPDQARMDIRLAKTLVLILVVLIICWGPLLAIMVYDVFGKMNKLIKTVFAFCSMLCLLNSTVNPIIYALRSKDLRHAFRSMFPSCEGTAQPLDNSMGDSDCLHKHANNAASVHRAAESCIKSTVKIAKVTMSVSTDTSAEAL

Chain of Cannabinoid receptor 2 (P34972 whole entry): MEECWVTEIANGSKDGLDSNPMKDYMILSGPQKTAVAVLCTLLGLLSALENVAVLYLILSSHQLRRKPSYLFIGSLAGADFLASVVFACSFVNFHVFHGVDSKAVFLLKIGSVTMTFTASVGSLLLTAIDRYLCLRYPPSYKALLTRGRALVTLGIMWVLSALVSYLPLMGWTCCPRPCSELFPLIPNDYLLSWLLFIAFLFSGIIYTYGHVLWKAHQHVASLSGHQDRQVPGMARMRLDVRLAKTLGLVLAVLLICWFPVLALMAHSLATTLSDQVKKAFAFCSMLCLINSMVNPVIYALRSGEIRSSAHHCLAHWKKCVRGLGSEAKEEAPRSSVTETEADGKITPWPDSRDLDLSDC

| SMILES | EC50 [1] [nM] | EC50 [2] [nM] |
| --- | --- | --- |
| Cn1nccc1-c1nc(C(C)(C)C)nc2c1nnn2CCC(F)(F)F | 131 | > 10000 |
| Cc1nonc1Cn1nnc2c(-c3ccc(F)nc3)nc(C(C)(C)C)nc21 | 639 | > 10000 |
